Measurements reported in paper PMC10523748, “Cytotoxicity, acute and sub-chronic toxicities of the leaves of Bauhinia thonningii (Schumach.) Milne-Redh. (Caesalpiniaceae)” (BMC Complementary Medicine and Therapies, 2023).
Read-outs that look alike come from different tables or passages of the source.

How the values were obtained:
CCRF-CEM leukemia cells = experiment: Resazurin reduction assay (RRA) cytotoxicity, CCRF-CEM; settings: Homo sapiens, 72 h
MDA-MB-231-BCRP cells = experiment: RRA cytotoxicity, MDA-MB-231-BCRP; settings: for IC50: Homo sapiens, MDA-MB-231/BCRP, 72 h; for Degree of resistance: IC50 MDA-MB-231-BCRP versus MDA-MB-231-pcDNA
Procedure: (§3) The sources of the HepG2 hepatocarcinoma [27], U87MG glioblastoma cells and its resistant epidermal growth factor receptor (EGFR) transfected subline, U87MG.ΔEGFR [28], HCT116 p53^+/+ colon adenocarcinoma cells and its resistant knock-out congener, HCT116 p53^−/− [29], MDA-MB-231-pcDNA3 breast adenocarcinoma cells and its multidrug-resistant breast cancer resistance protein (BCRP)-transfected MDA-MB-231-BCRP clone 23 subline [30] have also been described. […] These culture media were used as complete media with additional 10% fetal bovine serum and 1% penicillin/streptomycin (Invitrogen, Eggenstein, Germany).
(§4) Botanicals were tested in the concentration range of 0.63–80 µg/mL, the isolated compounds at 0.78—100 µM; the treated cells were incubated for 72 h; the fluorescence was measured at the excitation wavelength of 544 nm and at the emission wavelengths of 590 nm using Infinite M2000 Pro™ plate reader (Tecan, Crailsheim, Germany).

U87MG.ΔEGFR cells = experiment: RRA cytotoxicity, U87MG.ΔEGFR; settings: for IC50: Homo sapiens, 72 h; for Degree of resistance: IC50 U87MG.ΔEGFR versus U87MG
Procedure: as §3, §4

HCT116 p53^−/− cells = experiment: RRA cytotoxicity, HCT116 p53^−/−; settings: for IC50: Homo sapiens, HCT-116, 72 h; for Degree of resistance: IC50 HCT116 p53^−/− versus HCT116 p53^+/+
Procedure: as §3, §4

[1] = test system: 9 tested cancer cell lines; experiment: RRA cytotoxicity, whole panel of cancer cell lines; settings: for IC50: Homo sapiens, 72 h, read-out: IC50 against all the investigated cancer cell lines
normal AML12 hepatocytes = experiment: RRA cytotoxicity, normal AML12 hepatocytes; settings: for Selectivity index: IC50 in AML12 versus IC50 in HepG2; for IC50: Mus musculus, AML12, 72 h
[2] = test system: MDA-MB-231-pcDNA breast adenocarcinoma cells; experiment: RRA cytotoxicity, MDA-MB-231-pcDNA; settings: Homo sapiens, 72 h
Procedure: (§5) The sources of the HepG2 hepatocarcinoma [27], U87MG glioblastoma cells and its resistant epidermal growth factor receptor (EGFR) transfected subline, U87MG.ΔEGFR [28], HCT116 p53^+/+ colon adenocarcinoma cells and its resistant knock-out congener, HCT116 p53^−/− [29], MDA-MB-231-pcDNA3 breast adenocarcinoma cells and its multidrug-resistant breast cancer resistance protein (BCRP)-transfected MDA-MB-231-BCRP clone 23 subline [30] have also been described. To compare the activity of samples in HepG2 cells, the AML12 hepatocytes were used [31]. […] These culture media were used as complete media with additional 10% fetal bovine serum and 1% penicillin/streptomycin (Invitrogen, Eggenstein, Germany).
as §4

[3] = test system: HepG2 hepatocarcinoma cells; experiment: RRA cytotoxicity, HepG2; settings: Homo sapiens, HepG2, 72 h
Procedure: as §5, §4

[4] = test system: HCT116 p53^+/+ colon adenocarcinoma cells; experiment: RRA cytotoxicity, HCT116 p53^+/+; settings: Homo sapiens, HCT-116, 72 h
Procedure: as §5, §4

U87MG glioblastoma cells = experiment: RRA cytotoxicity, U87MG; settings: Homo sapiens, U-87 MG, 72 h
Procedure: as §5, §4

[5] = test system: CEM/ADR5000 leukemia cells (P-gp-overexpressing); experiment: RRA cytotoxicity, CEM/ADR5000; settings: for IC50: Homo sapiens, ADR5000, 72 h; for Degree of resistance: IC50 CEM/ADR5000 versus CCRF-CEM
Description: These culture media were used as complete media with additional 10% fetal bovine serum and 1% penicillin/streptomycin (Invitrogen, Eggenstein, Germany).

[6] = test system: caspases 3/7 in CCRF-CEM cells; experiment: Caspase-Glo 3/7 assay; type: cell-based, human; settings: 6 h, versus untreated cells
Procedure: (§1) The amount of the treated cells was 1.5 × 10^4 cells for the caspase 3/7 assay or 3 × 10^4 cells for the caspase 8 and caspase 9 assays in 100 µL. The treated cells were then incubated for 6 h under the standard cell culture conditions as described above. Subsequently, the activity of caspases was detected by a spectrophotometry measurement of luminescence using 100 µL caspase solution from the Caspase-Glo 3/7, 8, and 9 Assay kits (Promega, Mannheim, Germany) with an Infinite M2000 ProTM plate reader (Tecan).

[7] = test system: caspase 9 in CCRF-CEM cells; experiment: Caspase-Glo 9 assay; type: cell-based, human; settings: 6 h, versus untreated cells
Procedure: as §1

CCRF-CEM cells = experiment: Apoptosis, annexin V/PI staining and flow cytometry; type: cell-based, human; settings: 24 h, non-treated cells 0.4%
Procedure: The concentration of samples used and CCRF-CEM cells were those as reported above under the standard cell culture conditions. To detect the apoptotic cells, the fluorescein isothiocyanate (FITC)-conjugated annexin V/PI assay kit (eBioscience™ Annexin V; Invitrogen, San Diego, USA) was applied to treated cells after 24 h incubation followed by the measurements with BD Accury C6 Flow Cytometer (BD Biosciences). The assays were performed separately three times and in triplicate.

[8] = test system: reactive oxygen species (ROS) production in CCRF-CEM cells; experiment: ROS production, H2DCFH-DA staining and flow cytometry; type: cell-based, human; settings: 24 h
Procedure: (§2) The treated cells (1 mL; 1 × 10^6 cells) were incubated for 24 h under the standard cell culture condition. Cells were further stained for 30 min with 10 µL of staining solution ([…] or H2DCFH-DA solution for ROS evaluation) according to the manufacturer’s protocol. Using the LSRFortessa FACS analyzer (Becton–Dickinson, Heidelberg, Germany), the amount of 1 × 10^4 cells was further measured as described earlier.

[9] = test system: mitochondrial membrane potential (MMP) of CCRF-CEM cells; experiment: MMP analysis, JC-1 staining and flow cytometry; type: cell-based, human; settings: 24 h
Procedure: as §2

[10] = test system: caspase 8 in CCRF-CEM cells; experiment: Caspase-Glo 8 assay; type: cell-based, human; settings: 6 h, versus untreated cells
Procedure: as §1

[11] = test system: human hepatocellular carcinoma HuH7 cells; settings: cited from earlier work
MCF-7 cells = test system: MCF-7 cells; parameters: method as in PMID 22213398; settings: cited from earlier work
[12] = test system: cancer cell lines tested in the current work; parameters: method as in PMID 30703492; settings: cited from earlier work

| SMILES | IC50 (CCRF-CEM leukemia cells) [µM] | IC50 (MDA-MB-231-BCRP cells) [µM] | Degree of resistance (MDA-MB-231-BCRP cells) | IC50 (U87MG.ΔEGFR cells) [µM] | Degree of resistance (U87MG.ΔEGFR cells) | IC50 (HCT116 p53^−/− cells) [µM] | Degree of resistance (HCT116 p53^−/− cells) | Selectivity index (normal AML12 hepatocytes) | IC50 (normal AML12 hepatocytes) [µM] | IC50 [2] [µM] | IC50 [3] [µM] | IC50 [4] [µM] | IC50 (U87MG glioblastoma cells) [µM] | melting point [°C] | IC50 [5] [µM] | Degree of resistance [5] | other results |
| --- | --- | --- | --- | --- | --- | --- | --- | --- | --- | --- | --- | --- | --- | --- | --- | --- | --- |
| COc1ccc(-c2oc3cc(O)c(C)c(O)c3c(=O)c2OC)cc1O [Compound 1, 6-C-methylquercetin-3, 4'-dimethyl ether] | 14.2 ± 0.94 | 17 ± 2.05 | 1.51 | 26.6 ± 1.13 | 0.98 | 10.8 ± 1.11 | 0.51 | > 2.13 | > 50 | 11.3 ± 1.04 | 23.5 ± 0.59 | 21.2 ± 2.45 | 27.2 ± 3.07 | 195 to 197 | 10.3 ± 0.44 | 0.72 | IC50 [1]: < 50 µM |
| COc1cc2oc(-c3ccc(O)c(O)c3)c(OC)c(=O)c2c(O)c1C [Compound 2, 6-C-methylquercetin-3,7-dimethyl ether] | 12 ± 1.25 | 14.3 ± 1.12 | 1.45 | 21.1 ± 2.4 | 0.85 | 9.2 ± 0.45 | 0.75 |  | > 50 | 9.84 ± 0.66 | 19.6 ± 1.44 | 12.3 ± 1.24 | 24.8 ± 2.22 | 195 to 197 | 9.11 ± 0.18 | 0.76 |  |
| COc1cc(-c2oc3cc(OC)c(C)c(O)c3c(=O)c2OC)ccc1O [Compound 3, 6-C-methylquercetin 3,7,3'-trimethyl ether] | 17.9 ± 1.67 | 13.2 ± 1.48 | 1.20 | 19.8 ± 0.96 | 0.64 | 17.2 ± 0.83 | 0.87 |  | > 50 | 11 ± 0.58 | 23.6 ± 3.23 | 19.8 ± 0.78 | 31 ± 2.65 | 185 to 187 | 10.2 ± 0.3 | 0.57 | IC50 [1]: < 50 µM |
| C[C@@H]1OC(Oc2c(-c3ccc(O)c(O)c3)oc3cc(O)cc(O)c3c2=O)[C@H](O)[C@H](O)[C@H]1O (stereo partly drawn) [Compound 5, quercetin-3-O-L-rhamnopyranoside] | 8.73 ± 0.62 | 16.8 ± 1.26 | 2.32 | 31.1 ± 1.85 | 1.31 | 13.2 ± 1.14 | 0.73 | > 1.77 | > 50 | 7.24 ± 0.47 | 28.3 ± 1.74 | 17.9 ± 1.26 | 23.7 ± 1.77 |  | 7.21 ± 0.61 | 0.83 |  |
| O=c1c(O[C@@H]2O[C@H](CO)[C@@H](O)[C@H](O)[C@H]2O)c(-c2ccc(O)c(O)c2)oc2cc(O)cc(O)c12 [Compound 6, quercetin-3-O-β-glucopyranoside] | 9.12 ± 0.59 | 12.3 ± 0.97 | 1.76 | 33.5 ± 2.79 | 1.75 | 12.5 ± 1.36 | 0.57 | above 2 | > 50 | 6.99 ± 0.28 | 21.5 ± 2.25 | 21.8 ± 2.11 | 19 ± 2.01 |  | 7.88 ± 0.58 | 0.90 |  |
| COc1c(C)c(O)c2c(=O)c(OC)c(-c3ccc(O)cc3)oc2c1C [Compound 7, 6,8-C-dimethylkaempferol 3,7-dimethyl ether] | 6.61 ± 0.41 | 8.15 ± 0.73 | 4.22 | 18 ± 2.21 | 0.93 | 9.71 ± 0.76 | 0.50 | > 1.63 | > 50 | 1.93 ± 0.19 | 30.7 ± 1.86 | 19.5 ± 2.05 | 19.3 ± 1.62 | 285 to 287 | 2.86 ± 0.17 | 0.43 |  |
| COc1c(-c2ccc(O)cc2)oc2c(C)c(O)c(C)c(O)c2c1=O [Compound 8, 6,8-C-dimethylkaempferol-3-methyl ether] | 3.03 ± 0.37 | 8.26 ± 0.66 | 3.53 | 15.4 ± 0.64 | 1.92 | 3.41 ± 0.35 | 0.36 |  | > 50 | 2.34 ± 0.31 | 19.4 ± 2.07 | 9.59 ± 0.84 | 8.01 ± 0.84 | 250 to 253 | 2.42 ± 0.3 | 0.80 | Increase of caspases 3/7 activity [6]: 4.41 fold; Increase of caspase 9 activity [7]: 4.22 fold; Early apoptosis, annexin V (+)/PI (-) cells, highest proportion (CCRF-CEM cells): ≤ 67.3%; Effect on ROS production [8]: enhanced higher ROS production; ROS level ([8]; 2 × IC50, untreated cells 0.6%): 24.50%; Effect on the integrity of the MMP [9]: strongly altered the integrity of the MMP; Q1, cells with undamaged (intact) MMP ([9]; 2 × IC50, untreated control 92.6%): 23.0%; Increase of caspase 8 activity [10]: 3.63 fold |
| C[C@H]1[C@H](C)CC[C@]2(C(=O)O)CC[C@]3(C)C(=CC[C@@H]4[C@@]5(C)CC[C@H](O)C(C)(C)[C@@H]5CC[C@]43C)[C@H]12 [Compound 9, ursolic acid] |  |  |  |  |  |  |  |  |  |  |  |  |  |  |  |  | IC50 [11]: 75 µM; IC50 (MCF-7 cells; MCF-7, converted from μg/mL, read-out: IC50): 15.6 µM; IC50 (MCF-7 cells; MCF-7): 7.1 µg/mL |
| CCC(CCC(C)C1CCC2C3CC=C4CC(OC5OC(CO)C(O)C(O)C5O)CCC4(C)C3CCC12C)C(C)C [Compound 10, 3-O-β-D-glucopyranoside of β-sitosterol] | 44.3 ± 3.91 | > 50 |  | > 50 |  | > 50 |  |  | > 50 | > 50 | > 50 | > 50 | > 50 |  | > 50 | > 1.13 | IC50 [12]: > 100 µM; Cytotoxic activity in the panel ([1]; 9 cancer cell lines, up to 50 µM): selectively active |
| COc1cccc2c1C(=O)c1c(O)c3c(c(O)c1C2=O)C[C@@](O)(C(=O)CO)C[C@@H]3O[C@H]1C[C@H](N)[C@H](O)[C@H](C)O1 [Doxorubicin, doxorubicin, reference compound] | 0.02 | 0.79 ± 0.08 | 6.14 | 0.98 ± 0.07 | 3.79 | 1.78 ± 0.08 | 3.73 |  | > 50 | 0.13 ± 0.01 | 4.56 ± 0.48 |  | 0.26 ± 0.03 |  | 123 ± 10.9 | 6,683.00 |  |
| OO [H2O2, hydrogen peroxide, reference compound] |  |  |  |  |  |  |  |  |  |  |  |  |  |  |  |  | ROS level ([8]; 50 µM, untreated cells 0.6%): 94.30% |
| CC(C)[C@@H]1NC(=O)[C@H](C)OC(=O)[C@@H](C(C)C)NC(=O)[C@@H](C(C)C)OC(=O)[C@H](C(C)C)NC(=O)[C@H](C)OC(=O)[C@@H](C(C)C)NC(=O)[C@@H](C(C)C)OC(=O)[C@H](C(C)C)NC(=O)[C@H](C)OC(=O)[C@@H](C(C)C)NC(=O)[C@@H](C(C)C)OC1=O [Valinomycin, valinomycin, reference compound] |  |  |  |  |  |  |  |  |  |  |  |  |  |  |  |  | Effect on the integrity of the MMP [9]: strongly altered the integrity of the MMP; Q1, cells with undamaged (intact) MMP ([9]; positive control, picture: at 25 (no unit), text: 2 × IC50): 38.6% |
